The test system of test [1] is Ultraviolet Erythema. The test is described as follows: Ultraviolet Erythema Method (anti-inflammatory action). The class given is in vivo. The note with it: guinea pigs, 2 hours after irradiation, half dose 1 hour before and after. How it is done: ii. Ultraviolet Erythema Method
Using guinea pigs weighing 250-450 g, a rubber plate with 3 holes of 7 mm in diameter was fitted to the abdomen, hair of which had been removed in advance, and light was given by a mercury lamp (300 W) at the distance of 15 cm for 150 seconds. Two hours later the degree of erythema formation was marked according to the method of Winder et al. (Arch. Intern. Pharmacodyn., 116, 261 (1958)) and the efficacy rate was calculated, based on the criterion that 1.5 or less of total marks be effective. Half amount of the test solution was orally given 1 hour before and after the irradiation.

Test [2] deals with stretch symptoms induced by o-phenyl-p-benzoquinone. Kind of test: Phenylquinone Method (analgesic action). The following applies: mice, stretch symptoms over 30 minutes. The class given is in vivo, dd-strain male mice. The procedure:
Analgesic Action (Phenylquinone Method)
According to the method of Hendershot et al. (J. Pharmacol. Exptl. Therap., 125, 237 (1957)), to one group of six dd-strain male mice each weighing about 20 g a test solution containing a test compound was orally administered and 1 hour later 0.2 ml/20 g of body weight of 0.02% o-phenyl-p-benzoquinone solution was intraperitoneally injected. The frequency of stretch symptoms thus induced was measured for 30 minutes, and compared with that of a control group, and the inhibition percentage (effect) was calculated. Results: Carrageenin Edema Method Compound Dose (mg/kg) p.o. % inhibition ______________________________________ A 5 50 25 68 B 10 36 25 61 C 25 32 50 63 ______________________________________

Test [3] relates to Carrageenin Edema. Kind of test: Carrageenin Edema Method (anti-inflammatory action). It is filed as in vivo, Donryu-strain male rats. The following applies: carrageenin paw edema, rats, 2 hours after phlogogen. How it is done:
i. Carrageenin Edema Method
According to the method of Winter et al. (Proc. Soc. Exptl. Biol. Med., 111, 544 (1962)), to one group of five Donryu-strain male rats each weighing about 130 g a test solution containing a test compound was administered orally. One hour later 0.05 ml of 1% carrageenin solution as a phlogogenic substance was subcutaneously injected to the paw of the hind leg. And 2 hours after the administration of phlogogen the bulk of the paw was measured in order to obtain the increment percentage over that before administration. The ratio of bulk increment between a control group and a test group was calculated as inhibition percentage.
(The carrageenan paw model is a standard test of acute inflammation.)

For the compound `CC(=O)C(C)c1ccc2c(c1)Cc1cccnc1O2` (stereo not drawn) [A, 3-(5h-[1]benzopyrano[2,3-b]pyridin-7-yl)-2-butanone], the “Animals with score of 1.5 or less / Total animals” value in test [1] (1 mg/kg p.o.) is recorded as 3/10; in test [1] (2.5 mg/kg p.o.), 6/10. Moreover, the % inhibition – broadly, the percentage by which the read-out fell short of the control – in test [2] (5 mg/kg p.o.) amounted to 48.7%; in test [2] (10 mg/kg p.o.), 73.5%; in test [3] (5 mg/kg p.o.), 50%; in test [3] (25 mg/kg p.o.) it was 68%.
With `CC(=O)C(C)c1ccc2c(c1)Cc1ccc(C)nc1O2` (stereo not drawn) [B, 3-(2-methyl-5H-[1]benzopyrano[2,3-b]pyridin-7-yl)-2-butanone], the results for the “Animals with score of 1.5 or less / Total animals” value in test [1] (100 mg/kg p.o.) and in test [1] (250 mg/kg p.o.) were 2/5 and 4/5, respectively. Further, the “% inhibition” value came out at 24.0% in test [2] (0.5 mg/kg p.o.), 63.4% in test [2] (1 mg/kg p.o.), 36% in test [3] (10 mg/kg p.o.) and 61% in test [3] (25 mg/kg p.o.).
Turning to `CCC(=O)C(C)c1ccc2c(c1)Cc1cccnc1O2` (stereo not drawn) [C, 2-(5h-[1]benzopyrano[2,3-b]pyridin-7-yl)-3-pentanone], the “Animals with score of 1.5 or less / Total animals” value is 2/5 in test [1] (1 mg/kg p.o.) and 3/5 in test [1] (5 mg/kg p.o.). The “% inhibition” value was 41.6% in test [2] (25 mg/kg p.o.), 75.2% in test [2] (50 mg/kg p.o.), 32% in test [3] (25 mg/kg p.o.) and 63% in test [3] (50 mg/kg p.o.).

The values are drawn from patent US3974168A, “Tricycle substituted acetones” (Yoshitomi Pharmaceutical Industries, Ltd., priority 1973, dated 1976).
